This is an account of results in ChEMBL document CHEMBL5104227, “Synthesis and evaluation of radiolabeled porphyrin derivatives for cancer diagnoses and their nonradioactive counterparts for photodynamic therapy” (RSC Med Chem, 2022).

The structures appear in SMILES notation. Calls of active or inactive are those of the source. No cut-off for these calls is given here. Bounds are passed on as bounds.

For orientation: IC50 means the concentration that gives 50% inhibition. For orientation: logD means the decadic logarithm of the distribution of all forms, ionised or not, between an organic phase and buffer at a given pH.

Data set [1] concerns Colon 26. Nature of the data set: Dark toxicity against […] Colon 26 cells assessed as inhibition of cell growth incubated for 24 hrs by MTT assay. The format is functional, cell-based. Particulars: Mus musculus, Colon 26, 24 h. In general terms: Formazan colour is commonly taken as a measure of viable cells.
For data set [2], the system named is Colon 26. Kind of data set: Phototoxicity against […] Colon 26 cells assessed as inhibition of cell growth preincubated for 24 hrs followed by compound washout with replacement of fresh medium and irradiation with 50 W LED light by MTT assay. The format is functional, cell-based. Particulars: Mus musculus, Colon 26, light or radiation study.
A short description of data set [3]: Induction of singlet oxygen production in DMSO assessed as singlet oxygen quantum yield by measuring the photooxidation of 9,10-dimethylanthracene at 5 uM irradiated with 50 W LED light. The format is functional.
For data set [4], the system named is Colon 26. Kind of data set: Photodynamic therapeutic activity against […] Colon 26 cells /c xenografted in BALB/c mouse assessed as tumor growth inhibition at 13.6 umol/kg, iv pretreated for 24 hrs followed by 30 mins irradiation with 50 W LED light and measured upto 7 days. Particulars: dose 13.6 µmol/kg, time <= 7.0 day, tested as the 125I-labelled form. The format is functional, organism-based. On the technique in general: Xenograft models place foreign cells or tissue in a host animal.

Data set [5] is described as follows: Biodistribution in spleen of BALB/c mouse xenografted with […] Colon 26 cells at 37 kBq, iv measured upto 96 hrs by auto-well gamma counter analysis. The format is ADME, organism-based. The settings on record: in vivo.
Data set [6] can be described thus: Octanol-water partition coefficient, logP of the compound at pH 7.4 incubated for 10 mins by shake-flask method. The format is physicochemical.
Data set [7] in a line: Drug uptake in Tumor of BALB/c mouse xenografted with […] Colon 26 cells at 37 kBq, iv measured at 48 hrs by auto-well gamma counter analysis. The settings on record: in vivo. The format is ADME, organism-based, Neoplasm.
A short description of data set [8]: Biodistribution in liver of BALB/c mouse xenografted with […] Colon 26 cells at 37 kBq, iv measured upto 96 hrs by auto-well gamma counter analysis. The format is ADME, organism-based. Particulars: in vivo.
Data set [9] can be described thus: Biodistribution in lung of BALB/c mouse xenografted with […] Colon 26 cells at 37 kBq, iv measured upto 96 hrs by auto-well gamma counter analysis. The format is ADME, organism-based. Particulars: in vivo.
Data set [10] is described as follows: Toxicity in BALB/c mouse xenografted with […] Colon 26 cells assessed as weight loss at 13.6 umol/kg, iv pretreated for 24 hrs followed by 30 mins irradiation with 50 W LED light and measured upto 7 days. Particulars: in vivo, 168 h, dose 13.6 µmol/kg, time < 7 day. The format is organism-based.
Data set [11] is described as follows: Biodistribution in Tumor/muscle of BALB/c mouse xenografted with […] Colon 26 cells at 37 kBq, iv measured at 48 hrs by auto-well gamma counter analysis. The format is ADME, organism-based. The settings on record: in vivo.
The nature of data set [12]: Drug uptake in […] Colon 26 cells measured per mg of protein after 3 hrs by auto-well gamma counter analysis. The format is ADME, cell-based. The settings on record: mouse, colon 26, 3 h.
Data set [13] is described as follows: Biodistribution in Tumor/blood of BALB/c mouse xenografted with […] Colon 26 cells at 37 kBq, iv by auto-well gamma counter analysis. The format is ADME, organism-based. Particulars: in vivo, 96 h, TDE = time-dependent effect.

Consider `O=c1[nH]cc(F)c(=O)[nH]1` [FLUOROURACIL], for which the IC50 with Colon 26 [1] came out at 3.87 µM; with Colon 26 [2], 4.1 µM.

As for `Oc1ccc(-c2c3nc(c(-c4ccccc4)c4ccc([nH]4)c(-c4ccccc4)c4nc(c(-c5ccccc5)c5ccc2[nH]5)C=C4)C=C3)cc1I`, the values for the half-inhibitory concentration (IC50) in the data set on Colon 26 [1] and in the data set on Colon 26 [2] were above 50 µM and 8.77 µM, respectively. Further, the Activity in data set [3] stood at 0.65. In addition, in the data set with Colon 26 [4], the result was Active.

In the case of `O=C(N[C@@H](Cc1ccc(O)c([125I])c1)C(=O)O)c1ccc(-c2c3nc(c(-c4ccccc4)c4ccc([nH]4)c(-c4ccccc4)c4nc(c(-c5ccccc5)c5ccc2[nH]5)C=C4)C=C3)cc1`, the Drug uptake entry in data set [5] is reported as “Active”; in [7], 8.7 % ID/g; in data set [8], “Active”; in [9], “Active”; in data set [11] it was “Active”; in [12], 52.9%. In addition, the Drug uptake entry in data set [13] was “Tde”. Also, the logD at 10 min in [6] was found to be 2.55. Further, the Activity result in data set [10] was “Non-Toxic”.

On to `Oc1ccc(-c2c3nc(c(-c4ccccc4)c4ccc([nH]4)c(-c4ccccc4)c4nc(c(-c5ccccc5)c5ccc2[nH]5)C=C4)C=C3)cc1[125I]`, for which the Drug uptake result in data set [5] is reported as “Active”; in data set [7], 18 % ID/g; in data set [8], “Active”; in data set [9], “Active”; in data set [11], “Active”; in [12] it was 54%. Moreover, in data set [13], the Drug uptake result is reported as “Tde”. Besides, in data set [6], the logD at 10 min was found to be 2.96. The Activity result in [10] is “Non-Toxic”.

With `C1=Cc2nc1c(-c1ccccc1)c1ccc([nH]1)c(-c1ccccc1)c1nc(c(-c3ccccc3)c3ccc([nH]3)c2-c2ccccc2)C=C1`, the Activity in [3] was found to be 0.52.

With `O=C(N[C@@H](Cc1ccc(O)c(I)c1)C(=O)O)c1ccc(-c2c3nc(c(-c4ccccc4)c4ccc([nH]4)c(-c4ccccc4)c4nc(c(-c5ccccc5)c5ccc2[nH]5)C=C4)C=C3)cc1`, the half-inhibitory concentration (IC50) is above 100 µM in the data set with Colon 26 [1] and 5.28 µM with Colon 26 [2]. Also, the Activity in data set [3] stood at 0.51. The outcome with Colon 26 [4] was Active.
